Assay results reported in article PMC10302047, “Structure–Activity Relationship Studies of Indolglyoxyl-Polyamine Conjugates as Antimicrobials and Antibiotic Potentiators” (Pharmaceuticals, 2023).
≈ marks a conversion by molar mass, not a printed value.

Experiments:
S. aureus ATCC 25923 = assay: Antimicrobial susceptibility (MIC), S. aureus; type: cell-based, Staphylococcus aureus; conditions: Staphylococcus aureus, ATCC25923; S. aureus ATCC 25923; mean (n = 3)
Description: (§1) The susceptibility of bacterial strains S. aureus (ATCC 25923), E. coli (ATCC 25922) and P. aeruginosa (ATCC 27853) to antibiotics and compounds was determined according to previously reported protocols. Additional antimicrobial evaluation against MRSA (ATCC 43300) and C. albicans (ATCC 90028) was undertaken at the Community for Open Antimicrobial Drug Discovery at The University of Queensland (Australia) according to their standard protocols as reported previously.

MRSA ATCC 43300 = assay: Antimicrobial susceptibility (MIC), MRSA; type: cell-based; conditions: Staphylococcus aureus; MRSA ATCC 43300; mean (n = 2); read-out: MIC MRSA
Description: as §1

P. aeruginosa ATCC 27853 [1] = assay: Antimicrobial susceptibility (MIC), P. aeruginosa; type: cell-based; conditions: Pseudomonas aeruginosa, ATCC27853, mean (n = 3), read-out: MIC P. a
Description: as §1

E. coli ATCC 25922 = assay: Antimicrobial susceptibility (MIC), E. coli; type: cell-based; conditions: Escherichia coli, ATCC25922, mean (n = 3)
Description: as §1

C. albicans ATCC 90028 = assay: Antifungal susceptibility (MIC), C. albicans; type: cell-based; conditions: Candida albicans, ATCC90028, mean (n = 2)
Description: as §1

P. aeruginosa ATCC 27853 [2] = assay: Antibiotic potentiation (MIC of antibiotics in the presence of synergizing compounds), P. aeruginosa; type: cell-based, Pseudomonas aeruginosa; conditions: concentration required to restore doxycycline activity at 2 µg/mL (4.5 µM) against P. aeruginosa ATCC 27853
[3] = Cytotoxicity assay HEK293; type: cell-based, human; conditions: human, HEK293 cells, mean (n = 2), read-out: Cyto. IC50 (concentration of compound at 50% cytotoxicity)
Description: Cytotoxicity assays were conducted according to previously reported protocols.

human red blood cells = assay: Hemolytic assay; type: cell-based; conditions: mean (n = 2)
Description: Hemolysis assays were conducted according to previously reported protocols.

| Structure (SMILES) | MIC (S. aureus ATCC 25923) | MIC (MRSA ATCC 43300) | MIC (P. aeruginosa ATCC 27853 [1]) | MIC (E. coli ATCC 25922) | MIC (C. albicans ATCC 90028) | Conc (µM) for Potentiation of doxycycline (P. aeruginosa ATCC 27853 [2]) | IC50 [3] | Hem. HC10 (concentration of compound at 10% hemolytic activity) (human red blood cells) |
| --- | --- | --- | --- | --- | --- | --- | --- | --- |
| O=C(NCCCNCCCCCCNCCCNC(=O)C(=O)c1c[nH]c2ccccc12)C(=O)c1c[nH]c2ccccc12.O=C(O)C(F)(F)F.O=C(O)C(F)(F)F [Compound 17a, N^1,N^6-Bis(3-(2-(1H-indol-3-yl)-2-oxoacetamido)propyl)hexane-1,6-diaminium 2,2,2-trifluoroacetate] | 12.5 µM | > 40 µM | > 200 µM | 50 µM | > 40 µM | 12.5 µM |  |  |
| O=C(NCCCNCCCCCCCNCCCNC(=O)C(=O)c1c[nH]c2ccccc12)C(=O)c1c[nH]c2ccccc12.O=C(O)C(F)(F)F.O=C(O)C(F)(F)F [Compound 17b, N^1,N^7-Bis(3-(2-(1H-indol-3-yl)-2-oxoacetamido)propyl)heptane-1,7-diaminium 2,2,2-trifluoroacetate] | 25 µM | 39 µM | > 200 µM | 25 µM | > 39 µM | 100 µM | 31 µM | >39 µM |
| O=C(NCCCNCCCCCCCCNCCCNC(=O)C(=O)c1c[nH]c2ccccc12)C(=O)c1c[nH]c2ccccc12 [Compound 17c] | 25 µM (≈ 15 µg/mL) | 39 µM (≈ 23.4 µg/mL) | 100 µM (≈ 60.1 µg/mL) | 12.5 µM (≈ 7.51 µg/mL) | > 39 µM | 50 µM | 10 µM | >39 µM |
| O=C(NCCCNCCCCCCCCCCNCCCNC(=O)C(=O)c1c[nH]c2ccccc12)C(=O)c1c[nH]c2ccccc12.O=C(O)C(F)(F)F.O=C(O)C(F)(F)F [Compound 17d, N^1,N^10-Bis(3-(2-(1H-indol-3-yl)-2-oxoacetamido)propyl)decane-1,10-diaminium 2,2,2-trifluoroacetate] | 14.6 µM | 18.7 µM | 117 µM | 117 µM | 37 µM | 58 µM | 4.9 µM | >37 µM |
| O=C(NCCCNCCCCCCCCCCCCNCCCNC(=O)C(=O)c1c[nH]c2ccccc12)C(=O)c1c[nH]c2ccccc12 [Compound 17e] | 25 µM (≈ 16.4 µg/mL) | 9.04 µM (≈ 5.94 µg/mL) | > 200 µM | > 200 µM | 36 µM (≈ 23.6 µg/mL) | 6.25 µM | 5.6 µM | >36 µM |
| Cc1ccc2[nH]cc(C(=O)C(=O)NCCCNCCCCCCNCCCNC(=O)C(=O)c3c[nH]c4ccc(C)cc34)c2c1.O=C(O)C(F)(F)F.O=C(O)C(F)(F)F [Compound 20a, N^1,N^6-Bis(3-(2-(5-methyl-1H-indol-3-yl)-2-oxoacetamido)propyl)hexane-1,6-diaminium 2,2,2-trifluoroacetate] | 12.5 µM | ≤ 0.3 µM | 200 µM | 50 µM | > 39 µM | 12.5 µM | > 39 µM |  |
| Cc1ccc2[nH]cc(C(=O)C(=O)NCCCNCCCCCCCNCCCNC(=O)C(=O)c3c[nH]c4ccc(C)cc34)c2c1.O=C(O)C(F)(F)F.O=C(O)C(F)(F)F [Compound 20b, N^1,N^7-Bis(3-(2-(5-methyl-1H-indol-3-yl)-2-oxoacetamido)propyl)heptane-1,7-diaminium 2,2,2-trifluoroacetate] | 6.25 µM | ≤ 0.3 µM | 200 µM | 50 µM | > 38 µM | 12.5 µM |  | >38 µM |
| Cc1ccc2[nH]cc(C(=O)C(=O)NCCCNCCCCCCCCNCCCNC(=O)C(=O)c3c[nH]c4ccc(C)cc34)c2c1.O=C(O)C(F)(F)F.O=C(O)C(F)(F)F [Compound 20c, N^1,N^8-Bis(3-(2-(5-methyl-1H-indol-3-yl)-2-oxoacetamido)propyl)octane-1,8-diaminium 2,2,2-trifluoroacetate] | 3.12 µM | 4.7 µM | 800 µM | 12.5 µM | > 37 µM | 400 µM | > 37 µM |  |
| Cc1ccc2[nH]cc(C(=O)C(=O)NCCCNCCCCCCCCCCNCCCNC(=O)C(=O)c3c[nH]c4ccc(C)cc34)c2c1.O=C(O)C(F)(F)F.O=C(O)C(F)(F)F [Compound 20d, N^1,N^10-Bis(3-(2-(5-methyl-1H-indol-3-yl)-2-oxoacetamido)propyl)decane-1,10-diaminium 2,2,2-trifluoroacetate] | 3.12 µM | ≤ 0.28 µM | 800 µM | 12.5 µM | 9 µM | 400 µM | > 36 µM |  |
| Cc1ccc2[nH]cc(C(=O)C(=O)NCCCNCCCCCCCCCCCCNCCCNC(=O)C(=O)c3c[nH]c4ccc(C)cc34)c2c1.O=C(O)C(F)(F)F.O=C(O)C(F)(F)F [Compound 20e, N^1,N^12-Bis(3-(2-(5-methyl-1H-indol-3-yl)-2-oxoacetamido)propyl)dodecane-1,12-diaminium 2,2,2-trifluoroacetate] | 3.12 µM |  | 800 µM | 12.5 µM | 2.2 µM | 400 µM |  | 2.0 µM |
| COc1cccc2c(C(=O)C(=O)NCCCNCCCCCCCCNCCCNC(=O)C(=O)c3c[nH]c4c(OC)cccc34)c[nH]c12 [Compound 22c] | 25 µM (≈ 16.5 µg/mL) | 4.5 µM (≈ 2.97 µg/mL) | 800 µM (≈ 529 µg/mL) | 200 µM (≈ 132 µg/mL) | > 36 µM | 200 µM |  | >36 µM |
